Reference: patent US20250387388A1, “COMPOUND AS TRK INHIBITOR AND/OR RET INHIBITOR AND USE THEREOF” (Medinno Pharmaceutical Technology (Zhuhai) Co., Ltd., priority 2022, published 2025)

Experiments:
[1] = system: atopic dermatitis/eczema in mice; assay: Atopic dermatitis/eczema model in mice (dust mite extract + SEB); format: in vivo
vitiligo model in mice = assay: Vitiligo model in mice (monobenzone); format: in vivo, C57BL/6 mice; conditions: for IL-6 level in serum / TNF-α level in serum: 3% MDI-1228 gel
Method: • (1) Normal control group (5 mice, no treatment) • (2) Vitiligo model group (8 mice, no treatment) • (3) Vitiligo model+vehicle treatment group (8 mice, blank gel preparation, dose: 1.5 g/kg, twice daily) • (4) Vitiligo model+positive control drug treatment group (8 mice, 0.03% Tacrolimus, twice daily, 50 mg per dose) • (5) Vitiligo model+MDI-1228 (0.5%) compound gel preparation group (8 mice, 1 g/kg, twice daily) • (6) Vitiligo model+MDI-1228 (1%) compound gel preparation group (8 mice, 1.5 g/kg, twice daily) • (7) Vitiligo model+MDI-1228 (3%) compound gel preparation group (8 mice, 1.5 g/kg, twice daily) • Experimental environment: Temperature 20° C.-26° C., humidity 40%-70%
Modeling: Mice were acclimated for 7 days and subjected to vitiligo modeling by removing the black hair from a 2 cm^2 area on the back of the mice and applying the medication with a spatula using moderate force. The normal control group was administrated with Vaseline 50 mg once daily; and the model group was administrated with 40% monobenzone cream 50 mg once daily for 93 consecutive days.
Model validation: One mouse from the blank group and one from the model group were selected for model validation. The criteria for hair depigmentation assessment: Observe the skin & hair depigmentation daily and record the scores. Divide the depigmented area into the treated area and the non-treated area, with a total score of 5 for each area, making a total of 10 points for each mouse. The scoring criteria for mouse skin & hair depigmentation: 0 points for no depigmentation, 1 point for depigmentation area of 0-10%, 2 points for depigmentation area of 11%-25%, 3 points for depigmentation area of 26%-50%, 4 points for depigmentation area of 51%-75%, and 5 points for depigmentation area of 76%-100%.
After a 35-days treatment administration, a 15-day visual observation of the therapeutic efficacy for vitiligo in the treated mice began, with observations conducted every 3 days (for a total of 5 times) and photographs taken during each observation. The criteria for evaluating efficacy were as follows: The depigmented areas were divided into treated and non-treated areas, with a total score of 5 for each area, making a total of 10 points for each mouse. The scoring criteria for mouse skin & hair depigmentation are: 0 points for no depigmentation, 1 point for a depigmentation area of 0-10%, 2 points for a depigmentation area of 11%-25%, 3 points for a depigmentation area of 26%-50%. 4 points for a depigmentation area of 51%-75%, and 5 points for a depigmentation area of 76%-100%.
(1) HE Staining: The removed tissue was rinsed with running water for several hours, dehydrated through a series of ethanol solutions (70%, 80%, 90%), and then treated with a mixture of pure alcohol and xylene at a ratio of 1:1 for 15 minutes, followed by xylene I for 15 minutes and xylene II for 15 minutes (until transparent). The tissue was then placed in a mixture of xylene and paraffin at a ratio of 1:1 for 15 minutes, followed by immersion with paraffin I and paraffin II each for 50-60 minutes. The tissue was embedded in paraffin and sectioned. The sections were mounted, baked, dewaxed and hydrated in distilled water. The resulting sections were then stained in hematoxylin solution for 3 minutes, differentiated in a hydrochloric acid alcohol solution for 15 seconds, slightly washed, blued in a return blue solution for 15 seconds, rinsed with running water, stained with eosin for 3 minutes, rinsed with running water, dehydrated, cleared, and mounted for microscopic examination.
(2) ELISA detection: A double-antibody one-step sandwich Enzyme-linked Immunosorbent Assay (ELISA) kit was used. A capture antibody for the mouse target indicators was pre-coated onto microplate wells, to which samples, standards, and HRP-labeled detection antibodies were added sequentially, followed by incubation and thorough washing. […]

[2] = 0.5%, 1%, positive control drug, vs. model group

## CCc1cc(O)c(F)cc1-c1ccc2c(-c3nc4c([nH]3)CN(C(=O)N3CC[C@H](O)C3)C4)n[nH]c2c1 [MDI-1228, (S)-(2-(6-(2-ethyl-5-fluoro-4-hydroxyphenyl)-1H-indazol-3-yl)-4,6-dihydropyrrolo[3,4-d]imidazol-5-(1H)-yl)(3-hydroxylpyrrolidin-1-yl)ketone]
[1]; 0.5% MDI-1228 gel
  Skin HE staining and toluidine blue staining: a decrease in mast cells and inflammatory cells compared to the model group
[1]; 1% and 3% MDI-1228 gel
  Skin HE staining and toluidine blue staining: relatively significant therapeutic effects
[1]; 3% MDI-1228 gel
  Reduction in area under the curve (AUC) of the dermatitis scores vs. model group: 23.75%
[1]; Day 1, 0.5% MDI-1228 gel
  Number of Scratch Incidents (±SE): 24.0 ± 3.60
  Scratch Duration (±SE): 241.00 ± 48.16
[1]; Day 1, 0.5% MDI-1228 gel 0.7 g gel/kg twice a day
  Skin Erythema, Hemorrhage, Eruption, and Desquamation (Lesion Scoring) (Mean ± SE): 4.13 ± 0.55
[1]; Day 1, 1% MDI-1228 gel
  Number of Scratch Incidents (±SE): 20.38 ± 2.08
  Scratch Duration (±SE): 211.50 ± 22.88
[1]; Day 1, 1% MDI-1228 gel 1 g gel/kg twice a day
  Skin Erythema, Hemorrhage, Eruption, and Desquamation (Lesion Scoring) (Mean ± SE): 4.75 ± 0.75
[1]; Day 1, 3% MDI-1228 gel
  Number of Scratch Incidents (±SE): 23.00 ± 2.46
  Scratch Duration (±SE): 288.00 ± 19.68
[1]; Day 1, 3% MDI-1228 gel 1 g gel/kg twice a day
  Skin Erythema, Hemorrhage, Eruption, and Desquamation (Lesion Scoring) (Mean ± SE): 3.38 ± 0.42
[1]; Day 4, 0.5% MDI-1228 gel 0.7 g gel/kg twice a day
  Skin Erythema, Hemorrhage, Eruption, and Desquamation (Lesion Scoring) (Mean ± SE): 2.88 ± 0.64
[1]; Day 4, 1% MDI-1228 gel 1 g gel/kg twice a day
  Skin Erythema, Hemorrhage, Eruption, and Desquamation (Lesion Scoring) (Mean ± SE): 3.25 ± 0.49
[1]; Day 4, 3% MDI-1228 gel 1 g gel/kg twice a day
  Skin Erythema, Hemorrhage, Eruption, and Desquamation (Lesion Scoring) (Mean ± SE): 2.63 ± 0.46
[1]; Day 7, 0.5% MDI-1228 gel 0.7 g gel/kg twice a day
  Skin Erythema, Hemorrhage, Eruption, and Desquamation (Lesion Scoring) (Mean ± SE): 2.13 ± 0.58
[1]; Day 7, 1% MDI-1228 gel 1 g gel/kg twice a day
  Skin Erythema, Hemorrhage, Eruption, and Desquamation (Lesion Scoring) (Mean ± SE): 2.13 ± 0.30
[1]; Day 7, 3% MDI-1228 gel 1 g gel/kg twice a day
  Skin Erythema, Hemorrhage, Eruption, and Desquamation (Lesion Scoring) (Mean ± SE): 1.75 ± 0.31
[1]; Day 14, 0.5% MDI-1228 gel
  Number of Scratch Incidents (±SE): 30.38 ± 3.79
  Scratch Duration (±SE): 165.63 ± 27.56
[1]; Day 14, 0.5% MDI-1228 gel 0.7 g gel/kg twice a day
  Skin Erythema, Hemorrhage, Eruption, and Desquamation (Lesion Scoring) (Mean ± SE): 1.25 ± 0.36
[1]; Day 14, 1% MDI-1228 gel
  Number of Scratch Incidents (±SE): 28.13 ± 2.05
  Scratch Duration (±SE): 182.0 ± 25.39
[1]; Day 14, 1% MDI-1228 gel 1 g gel/kg twice a day
  Skin Erythema, Hemorrhage, Eruption, and Desquamation (Lesion Scoring) (Mean ± SE): 1.38 ± 0.18
[1]; Day 14, 3% MDI-1228 gel
  Number of Scratch Incidents (±SE): 23.75 ± 2.62
  Scratch Duration (±SE): 173.13 ± 19.26
[1]; Day 14, 3% MDI-1228 gel 1 g gel/kg twice a day
  Skin Erythema, Hemorrhage, Eruption, and Desquamation (Lesion Scoring) (Mean ± SE): 1.63 ± 0.26
[1]; MDI-1228 gel preparation
  Effect on inflammation in atopic dermatitis/eczema (conclusion): significant inhibitory effects on inflammation
[1]; MDI-1228 gel, vs. model group
  IFN-γ level in serum: significantly increased
  IL-4 level in serum: significantly reduced
  IL-13 level in serum: significantly reduced
[1]; MDI-1228 high-dose (3% gel), tofacitinib 10 mg/kg
  Behavioral analysis (scratch incidents and scratch duration): certain therapeutic effect in the behavioral analysis
[1]; gels with 0.5%, 1%, 3% MDI-1228, positive control Tofacitinib 10 mg/kg, 14 days
  Clinical lesion scoring, therapeutic effect: therapeutic effects similar to the positive control drug
[1]; high, medium, and low dose MDI-1228 gel, vs. model group
  TNF-α level in serum: a reduction in TNF-α levels
Vitiligo model in mice; 0.5%, 1%, 3% MDI-1228 gel twice daily, vs. model group
  Skin & hair depigmentation area scores: a reduction in depigmentation area scores
Vitiligo model in mice; [2]
  IL-6 level in serum: a reduced IL-6 level
  TNF-α level in serum: a reduced TNF-α level
Vitiligo model in mice; 1% and 3% MDI-1228 gel
  Skin HE staining (hair follicles, melanin granules): the most significant effects
Vitiligo model in mice
  IL-6 level in serum: the most significant reduction in IL-6 level
  TNF-α level in serum: the most significant reduction in TNF-α level
Vitiligo model in mice; 3% MDI-1228 gel 1.5 g/kg twice daily, vs. model group
  Area under the curve (AUC) of depigmentation scores: the greatest reduction in AUC scores
Vitiligo model in mice; different concentrations of MDI-1228
  Therapeutic effect in vitiligo mice (conclusion): significant therapeutic effect
